Assay results reported in US12503426B2, “Synthetic derivatives of oleoyl-lysophosphatidylinositol (oleoyl-LPI) and uses thereof” (LIPOVEXA SRL, priority 2017, dated 2025).

Assays:
CREB = CREB phosphorylation by Western blot; format: cell-based; details: H89 10 μM pre-treatment or oleoyl-LPI in control cells
Description: When cell cultures reached 80-90%, media were removed and cells were washed twice with 1×PBS. The cells were lysed in 150 μl (for one well of a 6 well plate) of Triton X-100 lysis buffer, containing phosphatase inhibitor cocktail (1:1000) (Sigma Aldrich, UK) and protease inhibitor (1:1000, Sigma Aldrich, UK). Cells were detached with scrapers and lysate were collected and centrifuged at 10,000 rpm, 4° C. for 5 minutes. The supernatant was then transferred to a 1.5 ml microcentrifuge tube and used for protein quantification. Cell lysates were stored at −20° C. for longer storage. All lysates were prepared on ice.
Non-specific antibody binding was prevented by incubating the nitrocellulose membrane in 5% milk in PBS-0.05% Tween-20 (v/v) for 30 minutes on a rotating plate. The membrane was then washed in PBS-0.05% Tween-20 (v/v) and then incubated with the primary antibody diluted in PBS-0.05% Tween-20 (v/v) on a rotating plate overnight at 4° C. After 24 hours, the membrane was washed 5× for 5 minutes with PBS-0.05% Tween-20 (v/v), and then incubated on a rotating plate with the appropriate secondary antibody for 1 hour at room temperature. […]

pancreatic islets = experiment: Glucose-stimulated insulin secretion (GSIS) of isolated islets; format: cell-based, mice; details: 16.7 mM glucose
Description: After euthanasia, pancreatic islets were isolated as described in detail elsewhere (Carter, J. D., S. B. Dula, K. L. Corbin, R. P. Wu and C. S. Nunemaker (2009), Biological Procedures Online, Vol 11(1), pp:3-31). Following purification, islets were rested overnight at 37° C. in a humidified atmosphere of 95% air and 5% CO2 in RPMI 1640 medium supplemented with 10% FBS, 100 units/ml penicillin and 0.1 mg/ml streptomycin.
Glucose-stimulated insulin secretion (GSIS) was performed on isolated mouse islets after resting them overnight in supplemented RPMI 1640 medium at 37° C. in a humidified atmosphere of 95% air and 5% CO2. Briefly, islets were hand-picked and placed in groups of five into individual micro centrifuge tubes. Islets were washed twice, then incubated with Krebs buffer (KRB, 115 mM NaCl; 4.7 mM KCl; 1.28 mM CaCl2·2H2O; 1.2 mM KH2PO4; 1.2 mM MgSO4·7H2O; 10 mM NaHCO3; 10 mM HEPES; 0.5% BSA; pH 7.4) supplemented with 1.1 mM glucose for 40 minutes at 37° C. Supernatants were discarded, then islets were incubated with KRB supplemented with 16.7 mM glucose for 20 minutes. Supernatants were collected for insulin determination using Mouse Ultrasensitive Insulin ELISA (Mercodia, Uppsala, Sweden) according to manufacturer instructions and data was reported as picograms of Insulin per islet in 20 minutes (pg/islet/20 min).

human GPR119 = target: T1, human GPR119 (Homo sapiens, UniProt Q8TDV5); experiment: cAMP assay in GPR119 transfected COS-7 cells; format: cell-based; details: COS-7 cells expressing human GPR119, agonists 30 min; read-out: EC50, production of cAMP
T1 construct: expressed in transfected cells; host or cells: COS-7 cells, calcium phosphate transfection
T1 sequence (Q8TDV5 1-335): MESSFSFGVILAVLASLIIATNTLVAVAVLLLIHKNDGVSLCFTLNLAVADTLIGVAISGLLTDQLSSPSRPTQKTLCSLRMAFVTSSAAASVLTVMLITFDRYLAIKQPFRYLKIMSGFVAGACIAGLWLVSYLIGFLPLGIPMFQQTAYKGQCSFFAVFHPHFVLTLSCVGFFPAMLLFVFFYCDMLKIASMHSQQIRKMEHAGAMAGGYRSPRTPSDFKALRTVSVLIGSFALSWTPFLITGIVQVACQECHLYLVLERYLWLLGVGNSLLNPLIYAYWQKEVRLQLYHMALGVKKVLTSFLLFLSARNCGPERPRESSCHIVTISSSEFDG
Description: COS-7 cells were cultured in Dulbecco's modified Eagle medium (DMEM) 1885 supplemented with 10% FBS, […] L-glutamine and 180 IU/ml penicillin+[…] streptomycin (Pen Strep) (Life Technologies, CA, USA) at 37° C. and 10% CO2. The COS-7 cells were transiently transfected with GPR119 or pcDNA by the calcium phosphate transfection method for 5 hours in 37° C., 10% CO2 as described by Kissow H, Hartmann B, Hoist J J, Viby N E, Hansen L S, Rosenkilde M M, Hare K J, Poulsen S S. Regul Pept. 2012. Vol: 179(1-3), pp 91-100; the disclosure of which is incorporated herein in its entirety by way of reference.
COS-7 cells were transfected with about 40 μg GPR119 DNA or pcDNA3 per […] flask. One day after transfection, the cells were seeded out (about 35,000 cell/well) in a 96 well white plate (Perkin Elmer, Massachusetts, USA). The cells were washed twice the following day and incubated for 30 min, at 37° C. with HBS and 1 mM IBMX (Sigma Aldrich, USA). Agonists were added for 30 min in the assay medium. The Hithunter® cAMP XS+ (DiscoveRx, Fremont, USA) was carried out by following the manufacturer's instructions.
Accordingly, the work outlined in this example evaluates whether activation of GPR119 by oleoyl-LPI in enteroendocrine L cell affect the proglucagon gene expression by monitoring the CREB activity. […]

oleoyl-lysophosphatidylinositol [oleoyl-LPI]
phosphorylation of CREB (CREB): able to stimulate CREB phosphorylation
insulin secretion response to stimulation (pancreatic islets; GPR119−/− islets): completely lost the ability to respond
enhancement of acute insulin secretion (pancreatic islets; wild type islets, oleoyl-LPI 20 μM, 20 minutes): approximately 50%
EC50 (human GPR119): 239 nM
